Laboratory results published in ChEMBL document CHEMBL1649160, “ST-246 antiviral efficacy in a nonhuman primate monkeypox model: determination of the minimal effective dose and human dose justification” (Antimicrob Agents Chemother, 2009).

Columns and labels:
[1] = AUC (0 to 24 hrs) in monkeypox virus infected cynomolgus monkey at 30 mg/kg, po qd for 14 days administered under fed condition measured after 14 days; type: ADME, organism-based, Macaca fascicularis; parameters: time < 24 hr, dose 30 mg/kg, route oral; conditions: plasma
[2] = Cmax in human at 6.7 mg/kg, po qd for 21 days administered under fed condition measured after 21 days; type: ADME, organism-based; parameters: dose 6.7 mg/kg, route oral; conditions: in vivo
[3] = Cmax in monkeypox virus infected cynomolgus monkey at 10 mg/kg, po qd for 14 days administered under fed condition measured after 14 days; type: ADME, organism-based, Macaca fascicularis; parameters: dose 10 mg/kg, route oral; conditions: in vivo
[4] = Cmax in human at 4.2 mg/kg, po qd for 21 days administered under fed condition measured after 21 days; type: ADME, organism-based; parameters: dose 4.2 mg/kg, route oral; conditions: in vivo
[5] = AUC (0 to 24 hrs) in human at 13.3 mg/kg, po qd for 6 days administered under fed condition measured after 6 days; type: ADME, organism-based; parameters: time < 24 hr, dose 13.3 mg/kg, route oral; conditions: plasma
[6] = AUC (0 to 24 hrs) in human at 13.3 mg/kg, po qd for 21 days administered under fed condition measured after 21 days; type: ADME, organism-based; parameters: time < 24 hr, dose 13.3 mg/kg, route oral; conditions: plasma
[7] = Cmax in human at 13.3 mg/kg, po qd for 21 days administered under fed condition measured after 21 days; type: ADME, organism-based; parameters: dose 13.3 mg/kg, route oral; conditions: in vivo
[8] = AUC (0 to 24 hrs) in monkeypox virus infected cynomolgus monkey at 10 mg/kg, po qd for 14 days administered under fed condition measured after 14 days; type: ADME, organism-based, Macaca fascicularis; parameters: time < 24 hr, dose 10 mg/kg, route oral; conditions: plasma
[9] = AUC (0 to 24 hrs) in monkeypox virus infected cynomolgus monkey at 20 mg/kg, po administered as single dose under fed condition measured after 1 day; type: ADME, organism-based, Macaca fascicularis; parameters: time < 24 hr, dose 20 mg/kg, route oral; conditions: plasma
[10] = Cmax in monkeypox virus infected cynomolgus monkey at 10 mg/kg, po qd for 14 days administered under fed condition measured after 7 days; type: ADME, organism-based, Macaca fascicularis; parameters: dose 10 mg/kg, route oral; conditions: in vivo
[11] = AUC (0 to 24 hrs) in monkeypox virus infected cynomolgus monkey at 30 mg/kg, po administered as single dose under fed condition measured after 1 day; type: ADME, organism-based, Macaca fascicularis; parameters: time < 24 hr, dose 30 mg/kg, route oral; conditions: plasma
[12] = Cmax in human at 13.3 mg/kg, po administered as single dose under fed condition measured after 1 day; type: ADME, organism-based; parameters: dose 13.3 mg/kg, route oral; conditions: in vivo
[13] = AUC (0 to 24 hrs) in human at 6.7 mg/kg, po administered as single dose under fed condition measured after 1 day; type: ADME, organism-based; parameters: time < 24 hr, dose 6.7 mg/kg, route oral; conditions: plasma
[14] = Cmax in monkeypox virus infected cynomolgus monkey at 10 mg/kg, po administered as single dose under fed condition measured after 1 day; type: ADME, organism-based, Macaca fascicularis; parameters: dose 10 mg/kg, route oral; conditions: in vivo
[15] = AUC (0 to 24 hrs) in human at 4.2 mg/kg, po qd for 6 days administered under fed condition measured after 6 days; type: ADME, organism-based; parameters: time < 24 hr, dose 4.2 mg/kg, route oral; conditions: plasma
[16] = AUC (0 to 24 hrs) in monkeypox virus infected cynomolgus monkey at 10 mg/kg, po administered as single dose under fed condition measured after 1 day; type: ADME, organism-based, Macaca fascicularis; parameters: time < 24 hr, dose 10 mg/kg, route oral; conditions: plasma
[17] = Cmax in human at 4.2 mg/kg, po administered as single dose under fed condition measured after 1 day; type: ADME, organism-based; parameters: dose 4.2 mg/kg, route oral; conditions: in vivo
[18] = Cmax in monkeypox virus infected cynomolgus monkey at 30 mg/kg, po qd for 14 days administered under fed condition measured after 14 days; type: ADME, organism-based, Macaca fascicularis; parameters: dose 30 mg/kg, route oral; conditions: in vivo
[19] = Cmax in monkeypox virus infected cynomolgus monkey at 30 mg/kg, po administered as single dose under fed condition measured after 1 day; type: ADME, organism-based, Macaca fascicularis; parameters: dose 30 mg/kg, route oral; conditions: in vivo
[20] = Cmax in human at 6.7 mg/kg, po qd for 6 days administered under fed condition measured after 6 days; type: ADME, organism-based; parameters: dose 6.7 mg/kg, route oral; conditions: in vivo
[21] = AUC (0 to 24 hrs) in human at 13.3 mg/kg, po administered as single dose under fed condition measured after 1 day; type: ADME, organism-based; parameters: time < 24 hr, dose 13.3 mg/kg, route oral; conditions: plasma
[22] = AUC (0 to 24 hrs) in human at 6.7 mg/kg, po qd for 21 days administered under fed condition measured after 21 days; type: ADME, organism-based; parameters: time < 24 hr, dose 6.7 mg/kg, route oral; conditions: plasma
[23] = AUC (0 to 24 hrs) in monkeypox virus infected cynomolgus monkey at 30 mg/kg, po qd for 14 days administered under fed condition measured after 7 days; type: ADME, organism-based, Macaca fascicularis; parameters: time < 24 hr, dose 30 mg/kg, route oral; conditions: plasma
[24] = AUC (0 to 24 hrs) in human at 4.2 mg/kg, po administered as single dose under fed condition measured after 1 day; type: ADME, organism-based; parameters: time < 24 hr, dose 4.2 mg/kg, route oral; conditions: plasma
[25] = AUC (0 to 24 hrs) in monkeypox virus infected cynomolgus monkey at 10 mg/kg, po qd for 14 days administered under fed condition measured after 7 days; type: ADME, organism-based, Macaca fascicularis; parameters: time < 24 hr, dose 10 mg/kg, route oral; conditions: plasma
[26] = AUC (0 to 24 hrs) in human at 4.2 mg/kg, po qd for 21 days administered under fed condition measured after 21 days; type: ADME, organism-based; parameters: time < 24 hr, dose 4.2 mg/kg, route oral; conditions: plasma
[27] = Cmax in human at 13.3 mg/kg, po qd qd for 6 days administered under fed condition measured after 6 days; type: ADME, organism-based; parameters: dose 13.3 mg/kg, route oral; conditions: in vivo
[28] = Cmax in human at 4.2 mg/kg, po qd for 6 days administered under fed condition measured after 6 days; type: ADME, organism-based; parameters: dose 4.2 mg/kg, route oral; conditions: in vivo
[29] = Cmax in human at 6.7 mg/kg, po administered as single dose under fed condition measured after 1 day; type: ADME, organism-based; parameters: dose 6.7 mg/kg, route oral; conditions: in vivo
[30] = Cmax in monkeypox virus infected cynomolgus monkey at 30 mg/kg, po qd for 14 days administered under fed condition measured after 7 days; type: ADME, organism-based, Macaca fascicularis; parameters: dose 30 mg/kg, route oral; conditions: in vivo
[31] = Cmax in monkeypox virus infected cynomolgus monkey at 20 mg/kg, po administered as single dose under fed condition measured after 1 day; type: ADME, organism-based, Macaca fascicularis; parameters: dose 20 mg/kg, route oral; conditions: in vivo
[32] = AUC (0 to 24 hrs) in human at 6.7 mg/kg, po qd for 6 days administered under fed condition measured after 6 days; type: ADME, organism-based; parameters: time < 24 hr, dose 6.7 mg/kg, route oral; conditions: plasma

Work on O=C(NN1C(=O)[C@@H]2[C@@H]3C=C[C@@H]([C@H]4C[C@@H]34)[C@@H]2C1=O)c1ccc(C(F)(F)F)cc1 [TECOVIRIMAT] yielded an AUC at 24 h [1] of 15800 ng·h/mL, a Cmax [2] of 1460 ng/mL and a Cmax [3] of 1080 ng/mL. For the same compound, the Cmax [4] was 1100 ng/mL, the AUC at 24 h [5] was 23400 ng·h/mL and the AUC at 24 h [6] was 22700 ng·h/mL. For the same compound, the Cmax [7] was 2440 ng/mL, the AUC at 24 h [8] was 13500 ng·h/mL and the AUC(0-t) at 24 h [9] was 18400 ng·h/mL. For the same compound, the Cmax [10] was 1020 ng/mL, the AUC(0-t) at 24 h [11] was 18100 ng·h/mL and the Cmax [12] was 2280 ng/mL. The AUC(0-t) at 24 h [13] was 13100 ng·h/mL, the Cmax [14] was 1010 ng/mL and the AUC at 24 h [15] was 11900 ng·h/mL. For the same compound, the AUC(0-t) at 24 h [16] was 13700 ng·h/mL, the Cmax [17] was 985 ng/mL and the Cmax [18] was 1190 ng/mL. The Cmax [19] was 1150 ng/mL, the Cmax [20] was 1300 ng/mL and the AUC(0-t) at 24 h [21] was 21000 ng·h/mL. The AUC at 24 h [22] was 16200 ng·h/mL, the AUC at 24 h [23] was 20700 ng·h/mL and the AUC(0-t) at 24 h [24] was 9100 ng·h/mL. The AUC at 24 h [25] was 12600 ng·h/mL, the AUC at 24 h [26] was 10100 ng·h/mL and the Cmax [27] was 2340 ng/mL. The Cmax [28] was 1210 ng/mL, the Cmax [29] was 1390 ng/mL and the Cmax [30] was 1510 ng/mL. It also gave a Cmax [31] of 1260 ng/mL and an AUC at 24 h [32] of 15400 ng·h/mL.
